{
  "source": "patent US4612285A",
  "about": "(priority 1982, dated 1986)",
  "key": {"[1]": {"system": "Staphylococcus aureus FDA 209P", "assay": "Antimicrobial properties (MIC)", "assay_type": "cell-based", "description": "(§1) (1) Antimicrobial properties:"}, "[2]": {"system": "Pseudomonas aeruginosa P-3", "assay": "Antimicrobial properties (MIC)", "assay_type": "cell-based", "description": "as §1"}, "Aspergillus nigar": {"system": "Aspergillus nigar", "assay": "Antimicrobial properties (MIC)", "assay_type": "cell-based", "description": "as §1"}, "Shigella sonnai": {"system": "Shigella sonnai", "assay": "Antimicrobial properties (MIC)", "assay_type": "cell-based", "description": "as §1"}, "Sarcina lutea PCI 1001": {"system": "Sarcina lutea PCI 1001", "assay": "Antimicrobial properties (MIC)", "assay_type": "cell-based", "description": "as §1"}, "Escherichia coli NIHJ": {"system": "Escherichia coli NIHJ", "assay": "Antimicrobial properties (MIC)", "assay_type": "cell-based", "description": "as §1"}, "Trichophyton ferrugineum": {"system": "Trichophyton ferrugineum", "assay": "Antimicrobial properties (MIC)", "assay_type": "cell-based", "description": "as §1"}, "Saccharomyces sake": {"system": "Saccharomyces sake", "assay": "Antimicrobial properties (MIC)", "assay_type": "cell-based", "description": "as §1"}, "[3]": {"system": "Klebsiella pneumonia PCI 602", "assay": "Antimicrobial properties (MIC)", "assay_type": "cell-based", "description": "as §1"}, "Candida albicans": {"system": "Candida albicans", "assay": "Antimicrobial properties (MIC)", "assay_type": "cell-based", "description": "as §1"}, "Salmonella typhimurium": {"system": "Salmonella typhimurium", "assay": "Antimicrobial properties (MIC)", "assay_type": "cell-based", "description": "as §1"}, "[4]": {"system": "Bacillus subtilis PCI 219", "assay": "Antimicrobial properties (MIC)", "assay_type": "cell-based", "description": "as §1"}, "Pyricularia oryzae": {"system": "Pyricularia oryzae", "assay_type": "cell-based"}, "[5]": {"system": "Ehrlich ascites carcinoma", "assay": "Effect on Ehrlich ascites carcinoma in mice", "assay_type": "in vivo, mice (ddY, male, 6 weeks age)", "description": "Ehrlich ascites carcinoma, 2×10^6 cells, is inoculated into mice (ddY, male, 6 weeks age) intra peritoneally, administered awamycin as shown in the table, number of survival dates is observed.\nAdministered date is designates as 0th day at tumor inoculation date. Number of survival dates is shown as mean value in 4-5 mice in one group. Increased life span is calculated according to the following equation. [formula]"}, "yeast and fungi": {"system": "yeast and fungi", "assay": "Antimicrobial action, yeast and fungi (summary)", "assay_type": "cell-based", "conditions": "summary in words", "description": "as §1"}, "Solubility": {"assay": "Solubility", "assay_type": "physicochemical"}, "Stability in heating": {"assay": "Stability in heating", "assay_type": "physicochemical", "conditions": "vacuum concentration preferably controlled below 60° C."}, "Sarcoma-180": {"system": "Sarcoma-180", "assay": "Effect on Sarcoma-180 in mice", "assay_type": "in vivo, mice (ICR, male, 6 weeks age)", "description": "Sarcome-180 (1×10^5 cells) is inoculated intra peritoneally in mice (ICR, male, 6 weeks age), administered the drug and the number of survival dates is observed."}, "Gram positive bacteria": {"system": "Gram positive bacteria", "assay": "Antibacterial action, Gram positive bacteria (summary)", "assay_type": "cell-based", "conditions": "summary in words", "description": "as §1"}, "Gram negative bacteria": {"system": "Gram negative bacteria", "assay": "Antimicrobial action, Gram negative bacteria (summary)", "assay_type": "cell-based", "conditions": "summary in words", "description": "as §1"}},
  "note": "Entries after “also recorded” stand apart in the source; their conditions may differ.",
  "data": [
    {"compound": "COC(=O)C1C(O)C(C)C(O)C(C)/C=C(/C)C(=O)c2c(OC)c(C)c(O)c3c2C(=O)C(SC)=C(NC(=O)/C(C)=C\\C=C\\C(C)C(O)C(C)C1O)C3=O", "note": "(stereo not shown) [awamycin]", "values": [
      {"measurement": "MIC", "setting": "[1]", "result": 0.8, "unit": "µg/mL"},
      {"measurement": "MIC", "setting": "[2]", "result": "> 100", "unit": "µg/mL"},
      {"measurement": "MIC", "setting": "Aspergillus nigar", "result": "> 100", "unit": "µg/mL"},
      {"measurement": "MIC", "setting": "Shigella sonnai", "result": "> 100", "unit": "µg/mL"},
      {"measurement": "MIC", "setting": "Sarcina lutea PCI 1001", "result": 0.05, "unit": "µg/mL"},
      {"measurement": "MIC", "setting": "Escherichia coli NIHJ", "result": "> 100", "unit": "µg/mL"},
      {"measurement": "MIC", "setting": "Trichophyton ferrugineum", "result": "> 100", "unit": "µg/mL"},
      {"measurement": "MIC", "setting": "Saccharomyces sake", "result": "> 100", "unit": "µg/mL"},
      {"measurement": "MIC", "setting": "[3]", "result": "> 100", "unit": "µg/mL"},
      {"measurement": "MIC", "setting": "Candida albicans", "result": "> 100", "unit": "µg/mL"},
      {"measurement": "MIC", "setting": "Salmonella typhimurium", "result": "> 100", "unit": "µg/mL"},
      {"measurement": "MIC", "setting": "[4]", "result": 0.1, "unit": "µg/mL"},
      {"measurement": "MIC", "setting": "Pyricularia oryzae", "result": "> 100", "unit": "µg/mL"},
      {"measurement": "Increased life span", "setting": "[5]; 6.3 mg/kg/day, administering date 1-9", "result": 73, "unit": "%"},
      {"measurement": "Number of survival date (median)", "setting": "[5]; 6.3 mg/kg/day, administering date 1-9, control 22", "result": 38},
      {"measurement": "Increased life span", "setting": "[5]; 25 mg/kg/day, administering date 0, 1", "result": 100, "unit": "%"},
      {"measurement": "Number of survival date (median)", "setting": "[5]; 25 mg/kg/day, administering date 0, 1,, control 20", "result": 40},
      {"measurement": "antitumor activity / growth inhibitory activity", "setting": "[5]; Ehrlich ascites carcinoma, in words", "result": "has antitumor activity; also recorded: exhibits growth inhibitory activity"},
      {"measurement": "action against yeast and fungi", "setting": "yeast and fungi", "result": "no action"},
      {"measurement": "Solubility", "setting": "Solubility; alcohols (methanol, ethanol), chlorinated methanes, ketones, esters, benzene, toluene, dimethylformamide, dimethyl sulfoxide", "result": "soluble"},
      {"measurement": "Solubility", "setting": "Solubility; diethyl ether", "result": "slightly soluble"},
      {"measurement": "Solubility", "setting": "Solubility; hexane and petroleum ether", "result": "insoluble"},
      {"measurement": "Solubility", "setting": "Solubility; water", "result": "slightly soluble"},
      {"measurement": "Stability in heating", "setting": "Stability in heating", "result": "stable in heating"},
      {"measurement": "Increased life span", "setting": "Sarcoma-180; 0.75 mg/kg/day, administering day 1-9", "result": 64, "unit": "%"},
      {"measurement": "Number of survival dates (mean value)", "setting": "Sarcoma-180; 0.75 mg/kg/day, administering day 1-9, control 14", "result": 23},
      {"measurement": "Increased life span", "setting": "Sarcoma-180; 1.5 mg/kg/day, administering day 1-9", "result": 200, "unit": "%"},
      {"measurement": "Number of survival dates (mean value)", "setting": "Sarcoma-180; 1.5 mg/kg/day, administering day 1-9, control 14", "result": 42},
      {"measurement": "Increased life span", "setting": "Sarcoma-180; 3.1 mg/kg/day, administering day 1-9", "result": "> 329", "unit": "%"},
      {"measurement": "Number of survival dates (mean value)", "setting": "Sarcoma-180; 3.1 mg/kg/day, administering day 1-9, control 14", "result": "> 60"},
      {"measurement": "Increased life span", "setting": "Sarcoma-180; 6.3 mg/kg/day, administering day 1-9", "result": 186, "unit": "%"},
      {"measurement": "Number of survival dates (mean value)", "setting": "Sarcoma-180; 6.3 mg/kg/day, administering day 1-9, control 14", "result": 40},
      {"measurement": "Increased life span", "setting": "Sarcoma-180; 25 mg/kg/day, administering day 0, 1", "result": 100, "unit": "%"},
      {"measurement": "Number of survival dates (mean value)", "setting": "Sarcoma-180; 25 mg/kg/day, administering day 0, 1,, control 12", "result": 24},
      {"measurement": "antitumor activity / growth inhibitory activity", "setting": "Sarcoma-180; Sarcoma-180, in words", "result": "has antitumor activity; also recorded: exhibits growth inhibitory activity"},
      {"measurement": "antibacterial action against some Gram positive bacteria", "setting": "Gram positive bacteria", "result": "shows antibacterial action against some of Gram positive bacteria; also recorded: active against Gram positive bacteria"},
      {"measurement": "action against Gram negative bacteria", "setting": "Gram negative bacteria", "result": "no action"}
    ]}
  ]
}
